This is an account of results in ChEMBL document CHEMBL1201862, “PubChem BioAssay data set” (2004).

For test [1], the target named is Photoreceptor-specific nuclear receptor (Homo sapiens, UniProt Q9Y5X4). In words: ligands suppressing NR2E3 nuclear receptor activity – biochemical, TR-FRET, dose response (AID 463256). The test is classed as functional.
For test [2], the target named is Peroxisome proliferator-activated receptor gamma/Nuclear receptor corepressor 2 (Homo sapiens, UniProt P37231+Q9Y618). In words: Counterscreen for NR2E3 inverse agonists: TR-FRET-based biochemical high throughput dose response assay to identify inverse agonists of the interaction between peroxisome proliferator-activated receptor gamma (PPARg) and nuclear receptor co-repressor 2 (NCOR2). The class given is functional. For orientation: Counterscreens check selectivity or assay interference.
Sequence of Peroxisome proliferator-activated receptor gamma/Nuclear receptor corepressor 2 (P37231 whole entry): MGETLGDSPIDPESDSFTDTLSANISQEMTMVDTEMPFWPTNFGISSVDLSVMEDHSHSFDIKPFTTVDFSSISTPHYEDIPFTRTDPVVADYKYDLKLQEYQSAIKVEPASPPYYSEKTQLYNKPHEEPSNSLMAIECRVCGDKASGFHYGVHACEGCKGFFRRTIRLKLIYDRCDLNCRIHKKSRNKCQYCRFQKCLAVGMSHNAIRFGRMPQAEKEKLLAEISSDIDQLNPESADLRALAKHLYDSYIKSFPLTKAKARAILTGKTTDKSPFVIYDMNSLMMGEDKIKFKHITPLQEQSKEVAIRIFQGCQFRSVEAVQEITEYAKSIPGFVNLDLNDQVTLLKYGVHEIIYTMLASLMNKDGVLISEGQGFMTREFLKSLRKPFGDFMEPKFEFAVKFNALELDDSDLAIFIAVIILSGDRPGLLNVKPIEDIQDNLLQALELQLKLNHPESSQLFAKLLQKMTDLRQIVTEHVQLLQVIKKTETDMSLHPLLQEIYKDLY
Sequence of Peroxisome proliferator-activated receptor gamma/Nuclear receptor corepressor 2 (Q9Y618 whole entry): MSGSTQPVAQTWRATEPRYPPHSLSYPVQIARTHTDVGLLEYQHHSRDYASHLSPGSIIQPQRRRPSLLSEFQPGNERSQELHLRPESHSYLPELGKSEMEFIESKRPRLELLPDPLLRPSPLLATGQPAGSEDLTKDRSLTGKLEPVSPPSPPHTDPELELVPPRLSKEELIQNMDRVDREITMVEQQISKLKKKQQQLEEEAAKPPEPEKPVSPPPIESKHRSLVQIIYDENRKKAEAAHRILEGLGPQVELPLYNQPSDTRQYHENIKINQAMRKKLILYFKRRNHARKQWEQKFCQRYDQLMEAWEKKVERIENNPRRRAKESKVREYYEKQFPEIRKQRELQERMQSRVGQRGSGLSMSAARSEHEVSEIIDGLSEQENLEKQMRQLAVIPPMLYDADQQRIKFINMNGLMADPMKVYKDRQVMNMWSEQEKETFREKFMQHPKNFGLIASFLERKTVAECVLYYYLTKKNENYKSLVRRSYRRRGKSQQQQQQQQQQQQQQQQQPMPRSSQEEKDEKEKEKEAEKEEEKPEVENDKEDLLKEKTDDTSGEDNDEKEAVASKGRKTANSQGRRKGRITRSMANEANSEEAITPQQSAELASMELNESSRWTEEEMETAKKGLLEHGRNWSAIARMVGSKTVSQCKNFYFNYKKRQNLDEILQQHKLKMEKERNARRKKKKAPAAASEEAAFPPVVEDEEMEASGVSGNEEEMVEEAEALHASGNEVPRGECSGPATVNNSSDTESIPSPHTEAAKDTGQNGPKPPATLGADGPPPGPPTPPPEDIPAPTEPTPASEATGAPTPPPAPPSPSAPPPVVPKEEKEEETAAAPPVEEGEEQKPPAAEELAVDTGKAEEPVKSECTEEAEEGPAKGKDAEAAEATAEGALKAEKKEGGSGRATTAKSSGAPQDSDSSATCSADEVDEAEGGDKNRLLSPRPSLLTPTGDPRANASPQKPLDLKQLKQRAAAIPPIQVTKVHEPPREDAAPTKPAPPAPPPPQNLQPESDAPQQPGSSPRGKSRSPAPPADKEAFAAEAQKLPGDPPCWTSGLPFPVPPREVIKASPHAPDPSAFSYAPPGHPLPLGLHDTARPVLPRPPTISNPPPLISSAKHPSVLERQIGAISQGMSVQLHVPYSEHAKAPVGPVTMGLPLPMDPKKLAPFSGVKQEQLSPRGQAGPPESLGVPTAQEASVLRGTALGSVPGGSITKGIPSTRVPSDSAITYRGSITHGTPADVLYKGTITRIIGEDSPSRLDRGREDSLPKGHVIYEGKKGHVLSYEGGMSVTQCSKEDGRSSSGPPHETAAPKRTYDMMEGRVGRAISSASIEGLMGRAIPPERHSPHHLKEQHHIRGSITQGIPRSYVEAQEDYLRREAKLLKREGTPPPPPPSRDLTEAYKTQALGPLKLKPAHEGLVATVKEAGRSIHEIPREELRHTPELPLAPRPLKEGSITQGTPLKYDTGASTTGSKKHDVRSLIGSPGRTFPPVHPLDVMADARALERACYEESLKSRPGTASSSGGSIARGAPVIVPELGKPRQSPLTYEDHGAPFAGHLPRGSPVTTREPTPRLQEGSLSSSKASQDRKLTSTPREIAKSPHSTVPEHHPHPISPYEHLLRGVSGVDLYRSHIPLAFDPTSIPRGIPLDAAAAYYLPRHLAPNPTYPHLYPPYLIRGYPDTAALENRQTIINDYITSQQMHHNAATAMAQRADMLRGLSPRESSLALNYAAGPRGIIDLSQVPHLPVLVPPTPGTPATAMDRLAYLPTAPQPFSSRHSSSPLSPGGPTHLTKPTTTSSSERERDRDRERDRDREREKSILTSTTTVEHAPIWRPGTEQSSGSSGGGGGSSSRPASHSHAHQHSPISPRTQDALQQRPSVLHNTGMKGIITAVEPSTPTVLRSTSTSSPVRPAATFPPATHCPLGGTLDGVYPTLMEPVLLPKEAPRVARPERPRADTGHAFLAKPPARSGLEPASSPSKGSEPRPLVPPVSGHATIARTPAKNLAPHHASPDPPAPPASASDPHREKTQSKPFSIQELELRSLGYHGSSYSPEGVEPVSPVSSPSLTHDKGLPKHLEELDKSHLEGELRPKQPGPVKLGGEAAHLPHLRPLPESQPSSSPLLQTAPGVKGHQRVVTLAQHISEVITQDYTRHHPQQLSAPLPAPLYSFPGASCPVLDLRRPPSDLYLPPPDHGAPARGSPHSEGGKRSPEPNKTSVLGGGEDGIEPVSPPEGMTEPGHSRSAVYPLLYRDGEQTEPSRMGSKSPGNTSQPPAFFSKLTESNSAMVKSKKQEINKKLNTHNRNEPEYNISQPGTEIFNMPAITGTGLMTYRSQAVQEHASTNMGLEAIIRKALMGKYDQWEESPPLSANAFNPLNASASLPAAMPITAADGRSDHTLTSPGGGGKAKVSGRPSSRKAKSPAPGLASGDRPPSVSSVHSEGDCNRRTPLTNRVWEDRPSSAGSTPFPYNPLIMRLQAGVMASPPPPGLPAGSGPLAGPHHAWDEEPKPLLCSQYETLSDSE

The nature of test [3]: NIH3T3 cell viability loss – ATP luminescence, mouse fibroblasts, counter-screen, dose response (AID 2010).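 Note: cells exposed to compound for about 90 hours before reading.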 The class given is functional, cell-based.
The target of a further test is T1, Protein Tat (Human immunodeficiency virus type 1 group M subtype B (isolate HXB2)(HIV-1), UniProt P04608).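 Note: tat binding to TAR RNA read out by fluorescence polarization.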
T1 sequence (P04608 whole entry): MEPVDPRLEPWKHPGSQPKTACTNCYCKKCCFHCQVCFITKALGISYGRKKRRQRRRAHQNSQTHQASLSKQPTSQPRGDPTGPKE
The test is classed as functional.

The nature of test [4]: Trypanosoma cruzi growth suppression in host cells – NIH3T3 host cells, beta-gal luminescence, confirmation (AID 2044).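 Note: intracellular parasites grown in NIH/3T3 mouse fibroblasts as host cells; luminescent beta-galactosidase reporter signal from transgenic T. cruzi replicating inside host cells; inhibitors lower the luminescence signal.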 The class given is functional, cell-based.
Test [5] is described as follows: viability loss in Vero cells – cytotoxicity control for Vif-APOBEC3G degradation inhibitor project, dose response (AID 1117358). The class given is functional. To be noted: Vero.
Test [6] deals with Heat shock protein HSP 90-alpha (Homo sapiens, UniProt P07900). In words: Luminescence-based dose response biochemical high throughput screening assay for inhibitors of the Heat Shock Protein 90 (HSP90). [Related pubchem assays: 1831 (Summary AID.), 1846 (Confirmation screen.), 1789 (Primary screen.)].
A short description of test [7]: P. falciparum Dd2 growth inhibitors, dose response, SYBR Green, cherry-picked samples (AID 1159567). The test is classed as functional, cell-based.
Test [8] is described as follows: Dd2 parasite growth inhibition in erythrocytes – SYBR Green, dry powder samples, set 9, dose response (AID 1159568). The test is classed as functional, cell-based.
The nature of test [9]: growth inhibition of PfATP4-mutant resistant parasites – NITD609-resistant line, SYBR Green, dry powder, dose response (AID 1159571).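 Note: parasites synchronized at ring stage by sorbitol before testing.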 The class given is functional, cell-based.
The nature of test [10]: growth inhibition of yeast DHODH-expressing 3D7 parasites – SYBR Green, dry powder samples, dose response (AID 1159570).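 Note: parasite growth measured after 72 hours of compound exposure.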 The class given is functional, cell-based.
Test [11] can be described thus: toxicity to human HepG2 hepatoma cells – cell-based, plate reader, dry powder samples, cytotoxicity control, dose response (AID 1159569).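 Note: inhibitor potency with signal falling toward the positive control level.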 The test is classed as functional.
Test [12] is described as follows: Dd2 malaria parasite growth inhibition potency – SYBR Green, dry powder samples, dose response (AID 1159566).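 Note: potency for growth inhibition with lower SYBR green DNA signal.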 The class given is functional, cell-based.
The next test has as its target Nonstructural protein 1 (Influenza A virus, UniProt Q194T2). The test is classed as functional, Influenza A virus (A/California/07/2009(H1N1)).
For test [13], the system named is Streptococcus sp. 'group A'. Kind of test: Streptococcus pyogenes SK(-)GAS viability under kanamycin – luminescence, BacTiterGlo, confirmation, counter-screen for streptokinase expression inhibitor project, dose response (AID 1900). The class given is functional, organism-based.
Test [14] addresses T2, Short transient receptor potential channel 4 (Mus musculus, UniProt Q9QUQ5).
T2 sequence (Q9QUQ5 whole entry): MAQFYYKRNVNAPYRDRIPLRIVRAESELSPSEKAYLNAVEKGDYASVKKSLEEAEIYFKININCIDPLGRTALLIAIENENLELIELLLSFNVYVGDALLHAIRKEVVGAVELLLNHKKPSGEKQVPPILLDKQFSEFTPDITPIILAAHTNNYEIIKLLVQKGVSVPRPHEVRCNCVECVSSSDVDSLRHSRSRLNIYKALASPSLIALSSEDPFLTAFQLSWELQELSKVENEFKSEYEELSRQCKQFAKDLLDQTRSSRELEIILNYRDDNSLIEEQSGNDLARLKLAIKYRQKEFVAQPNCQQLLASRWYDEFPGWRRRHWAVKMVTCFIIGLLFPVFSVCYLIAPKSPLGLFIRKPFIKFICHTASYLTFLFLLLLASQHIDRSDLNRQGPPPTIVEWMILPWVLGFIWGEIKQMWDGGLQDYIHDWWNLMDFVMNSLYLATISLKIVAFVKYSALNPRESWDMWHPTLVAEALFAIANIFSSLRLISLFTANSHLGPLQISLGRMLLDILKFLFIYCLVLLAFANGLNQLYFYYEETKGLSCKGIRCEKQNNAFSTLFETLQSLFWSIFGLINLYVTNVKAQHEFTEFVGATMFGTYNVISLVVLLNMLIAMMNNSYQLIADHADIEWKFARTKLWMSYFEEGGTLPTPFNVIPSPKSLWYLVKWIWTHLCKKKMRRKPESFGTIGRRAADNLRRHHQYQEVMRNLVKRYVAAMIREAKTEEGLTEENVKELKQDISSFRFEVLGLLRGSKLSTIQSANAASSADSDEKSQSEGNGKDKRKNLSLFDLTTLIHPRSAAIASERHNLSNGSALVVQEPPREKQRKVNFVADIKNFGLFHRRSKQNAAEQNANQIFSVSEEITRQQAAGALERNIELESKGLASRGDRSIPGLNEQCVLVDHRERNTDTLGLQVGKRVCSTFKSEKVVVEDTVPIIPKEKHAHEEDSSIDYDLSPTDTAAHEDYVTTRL
Kind of test: block of DAMGO-driven TRPC4 calcium entry – cell-based, HEK293 TRPC4/mu-opioid, Fluo-4 calcium, dose response (AID 434942).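 Note: potency of inhibitors blocking the TRPC4 calcium response.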 The class given is functional.

Test [15] can be described thus: IC50 of Artemis nuclease activity blockers – biochemical, fluorescence intensity, dose response (AID 720701).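 Note: Artemis endonuclease enzyme.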 The test is classed as functional.
The next test deals with Streptococcus. In words: GAS UMAA2166 growth inhibition – luminescence, BacTiterGlo, counter-screen for streptokinase expression inhibitor project, dose response (AID 1915).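 Note: potency for reduction of bacterial viability or growth.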 The class given is functional, organism-based.
The subject of another test is INS1. In words: INS-1E survival protection against cytokine death – cell-based, luminescence, retest, dose response (AID 449756).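 Note: cell death triggered by IL-1 beta plus TNF-alpha plus IFN-gamma mixture; protective hits raise ATP signal compared with cytokine alone wells.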 The test is classed as functional. To be noted: Rattus norvegicus.
The target of the next test is T3, Streptokinase A (Streptococcus pyogenes serotype M1, UniProt P10520).
T3 sequence (P10520 whole entry): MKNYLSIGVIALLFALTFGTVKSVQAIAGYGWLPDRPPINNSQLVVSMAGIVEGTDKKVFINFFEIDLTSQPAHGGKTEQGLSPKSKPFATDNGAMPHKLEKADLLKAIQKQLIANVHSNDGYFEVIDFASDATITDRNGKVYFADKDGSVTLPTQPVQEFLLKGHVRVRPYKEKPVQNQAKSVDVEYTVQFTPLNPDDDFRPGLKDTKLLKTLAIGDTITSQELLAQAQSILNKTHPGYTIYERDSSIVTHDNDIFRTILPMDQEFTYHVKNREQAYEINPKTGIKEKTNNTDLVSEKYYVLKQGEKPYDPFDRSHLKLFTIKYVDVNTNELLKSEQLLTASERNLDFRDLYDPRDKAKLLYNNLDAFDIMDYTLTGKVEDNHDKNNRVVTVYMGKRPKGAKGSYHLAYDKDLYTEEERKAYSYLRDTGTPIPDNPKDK
Kind of test: viability-normalized secreted streptokinase activity reduction – plasminogen activation absorbance, OD405, dose response (AID 1914).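 Note: secreted streptokinase activity via plasminogen activation per viability signal from cell pellet.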 The test is classed as functional, Streptococcus pyogenes M1 GAS.

In a further test the test system is HT-1080. Kind of test: HT1080 cell viability loss – fluorescence readout (AID 620). As to conditions: Homo sapiens. The class given is functional, cell-based.
Test [16] addresses Luciferin 4-monooxygenase (Photinus pyralis, UniProt P08659). In words: Counter Screen for Luciferase-based Assay Positives. [Related pubchem assays: 620, 618, 411 ].
Another test deals with HEK293. Kind of test: EBV LMP1 TES2 canonical NF-kB signalling blockers – cell-based, HEK293, luciferase, cherry-pick, dose response (AID 588343). The test is classed as functional. To be noted: Homo sapiens.
In test [17] the target is Dual specificity tyrosine-phosphorylation-regulated kinase 1A (Rattus norvegicus, UniProt Q63470). The class given is biochemical, Homo sapiens.
The target in test [18] is Bifunctional protein GlmU (Mycobacterium tuberculosis, UniProt P9WMN3). Kind of test: Inhibitors of Mycobacterial Glucosamine-1-phosphate acetyl transferase (GlmU). Secondary screen. Also on record: species or system Mycobacterium tuberculosis H37Rv.
Sequence of Bifunctional protein GlmU (P9WMN3 whole entry): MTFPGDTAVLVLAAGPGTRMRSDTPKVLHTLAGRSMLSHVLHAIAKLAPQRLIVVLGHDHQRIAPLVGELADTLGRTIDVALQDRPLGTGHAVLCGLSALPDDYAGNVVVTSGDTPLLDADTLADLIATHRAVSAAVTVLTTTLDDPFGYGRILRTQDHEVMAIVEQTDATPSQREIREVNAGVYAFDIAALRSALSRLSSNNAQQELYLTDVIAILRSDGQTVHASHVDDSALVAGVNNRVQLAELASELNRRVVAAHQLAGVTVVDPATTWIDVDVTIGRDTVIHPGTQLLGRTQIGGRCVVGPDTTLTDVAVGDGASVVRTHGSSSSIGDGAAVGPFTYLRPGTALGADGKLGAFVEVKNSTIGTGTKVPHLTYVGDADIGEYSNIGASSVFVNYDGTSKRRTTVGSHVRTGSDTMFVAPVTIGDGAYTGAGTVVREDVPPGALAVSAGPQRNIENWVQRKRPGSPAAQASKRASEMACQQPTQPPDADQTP
Test [19] in a line: toxicity to human hepatoma HepG2 cells – cell-based, cherry-picked samples, cytotoxicity control, dose response (AID 1159577). The class given is functional.
The nature of test [20]: Luminescent dose response cell-based high throughput screening assay for inhibitors of the Janus kinase 2 mutant JAK2V617F. [Related pubchem assays: 1446 (Primary screen.), 1521 (Confirmation assay.), 1486 (Counter screen.)]. The test is classed as functional.

Active and inactive are the calls of the source.

Sequence of Luciferin 4-monooxygenase (P08659 whole entry): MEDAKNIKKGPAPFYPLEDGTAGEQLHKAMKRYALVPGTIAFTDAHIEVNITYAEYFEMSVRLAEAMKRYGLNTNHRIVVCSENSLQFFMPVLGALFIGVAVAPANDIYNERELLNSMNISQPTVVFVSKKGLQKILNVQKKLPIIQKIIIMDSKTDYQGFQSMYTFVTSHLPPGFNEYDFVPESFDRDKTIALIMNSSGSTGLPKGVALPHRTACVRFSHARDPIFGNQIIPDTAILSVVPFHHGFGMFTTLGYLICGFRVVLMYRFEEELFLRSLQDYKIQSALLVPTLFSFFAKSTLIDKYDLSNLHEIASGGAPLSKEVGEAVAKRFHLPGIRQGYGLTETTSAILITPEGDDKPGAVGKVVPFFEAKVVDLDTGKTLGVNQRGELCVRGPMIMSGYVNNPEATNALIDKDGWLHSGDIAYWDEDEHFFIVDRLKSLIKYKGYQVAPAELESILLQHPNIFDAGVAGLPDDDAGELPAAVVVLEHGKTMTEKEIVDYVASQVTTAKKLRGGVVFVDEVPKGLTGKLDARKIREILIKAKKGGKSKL
Sequence of Photoreceptor-specific nuclear receptor (Q9Y5X4 whole entry): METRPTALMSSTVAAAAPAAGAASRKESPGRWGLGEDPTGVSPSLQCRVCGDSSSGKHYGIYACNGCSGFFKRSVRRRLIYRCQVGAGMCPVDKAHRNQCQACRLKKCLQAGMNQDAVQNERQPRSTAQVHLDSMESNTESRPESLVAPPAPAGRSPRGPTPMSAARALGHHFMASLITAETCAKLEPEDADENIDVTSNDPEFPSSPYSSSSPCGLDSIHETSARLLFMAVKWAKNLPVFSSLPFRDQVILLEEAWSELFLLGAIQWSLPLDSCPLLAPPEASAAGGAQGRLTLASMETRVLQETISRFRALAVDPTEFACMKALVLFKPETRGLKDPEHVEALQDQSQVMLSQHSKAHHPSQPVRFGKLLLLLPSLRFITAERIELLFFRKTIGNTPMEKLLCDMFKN
Sequence of Nonstructural protein 1 (Q194T2 whole entry): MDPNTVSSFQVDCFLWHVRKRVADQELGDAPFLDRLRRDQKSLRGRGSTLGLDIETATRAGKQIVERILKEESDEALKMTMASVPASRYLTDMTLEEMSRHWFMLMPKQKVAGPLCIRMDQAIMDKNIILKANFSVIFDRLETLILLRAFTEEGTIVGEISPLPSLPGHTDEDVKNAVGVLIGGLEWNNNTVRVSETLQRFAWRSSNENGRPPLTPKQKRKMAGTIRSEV

For the molecule `CC(=O)c1ccc(-c2ccc(C(=O)Nc3nc(C)c(C(C)=O)s3)o2)cc1`, the IC50 in [1] is 8.01 µM (active); in test [2] it was 9.53 µM (active).
`Cc1noc(/C=C/c2ccco2)c1S(=O)(=O)N1CCC(C(=O)N2c3ccccc3CC2C)CC1` (stereo unspecified): the concentration for a half-maximal effect (EC50) in test [3] is > 60 µM (not active); in test [4] it was 1.66 µM (active). At Protein Tat, the IC50 was > 100 µM (active). In addition, in test [5], the CC50 was 39.7 µM (active).
With `COc1ccccc1NC(=O)c1coc(=O)c(Br)c1`, the IC50 in test [6] was 0.658 µM (active).
`CCCC(=O)N1CCC2(CC1)CN(S(=O)(=O)c1ccc(C)cc1)[C@@H](CO)c1[nH]c3cc(OC)ccc3c12`: the AC50 in test [7] was < 0.3 µM (active); in test [8], 0.182 µM (active); in test [9] it was 0.115 µM (active); in test [10] it was 0.137 µM (active); in test [11], 77.5 µM (active); in test [12], 0.0986 µM (active).
As to `c1ccc(-c2nc(NCc3ccco3)c3ccccc3n2)nc1`, the IC50 at Nonstructural protein 1 was 14.5 µM (active); in [15], 8.96 µM (active). Moreover, the EC50 in [13] was 3.14 µM (active); in [14] it was 0.335 µM (active); in the test on Streptococcus, 12.1 µM (active); on Streptokinase A, > 150 µM (not active). In addition, the AC50 in the test on INS1 was 3.41 µM (active).
As for `C[C@@H]1CN([C@@H](C)CO)C(=O)c2cccc(NC(=O)c3nc4ccccc4s3)c2O[C@H]1CN(C)C(=O)Nc1ccc(C(F)(F)F)cc1`, the AC50 in [7] was 1.06 µM (active); in test [9], 0.323 µM (active); in test [10], 0.274 µM (active); in [11] it was > 100 µM (inactive); in [12] it was 0.245 µM (active).
`COc1cccc(C(=O)Nc2nc3ccccc3[nH]2)c1`: the EC50 in the test with HT-1080 was > 50 µM (not active); in [16], 0.75 µM (active). Also, the AC50 with HEK293 was 3.29 µM (active). In addition, the CC50 in test [5] is > 40 µM (active).
On to `CS(=O)(=O)c1ccc(-c2cn3cc(C(=O)O)ccc3n2)cc1`, for which, in [6], the IC50 was 2.5 µM (active). The AC50 in test [17] was 1.96 µM (active).
As to `COc1ccc(OCc2cc(C(=O)O)c(C)o2)cc1`, the IC50 in test [18] is 51.7 µM (active).
In the case of `Cc1cccc(-c2ccc([C@@H]3[C@@H]4CN(C(=O)CN(C)C)C[C@H]3N4)cc2)c1`, the AC50 in test [7] is 3.46 µM (active); in test [8], 4.19 µM (active); in test [19], 32.1 µM (active).
Take `COc1ccc(-c2cc(-c3cc(C)ccc3O)[nH]n2)cc1`: the IC50 in test [20] was 1.83 µM (active).

Usually IC50 stands for the point on the concentration scale where inhibition reaches its midpoint. As a reminder, the EC50 is the concentration giving half of the maximal effect. As a reminder, the CC50 is the concentration that lowers cell viability or growth by half. By AC50 is commonly meant the concentration at which the activity in the assay is half-maximal.
